From patent US8883745B2, “C—glycolipids with enhanced Th-1 profile” (New York University, priority 2006, dated 2014)

Legend:
Format in all cases: in vivo
IFN-γ = IFN-γ levels in sera upon i.v. glycolipid administration to C57BL/6 mice (ELISA); set-up: IFN-γ levels, test 1 / IFN-γ levels, test 2 / IFN-γ levels, average / IFN-γ levels, Total / IFN-γ (B6): unit not given here
Procedure: (§1) Five- to six-week-old female C57BL/6 mice and BALB/c mice were purchased from Taconic. Each glycolipid was stored at 1 mg/ml in 100% DMSO. Mice were injected intravenously with 1 μg of each glyocolipid diluted in 200 μL sterile phosphate buffered saline (PBS). At indicated time points, sera were collected from each animal, and concentrations of IFN-γ, IL-4, and IL-12 in the sera were evaluated by enzyme-linked immunosorbent assay (ELISA). Serum concentrations of IFN-γ, IL-4, and IL-12 were evaluated using an ELISA kit (eBioscience, San Diego, Calif.). Briefly, 96 well flat-bottom ELISA plates (NUNC) were coated with capture antibody according to the manufacture's recommendation and incubated overnight at 4° C. The plates were washed with PBS+0.05% Tween 20 (PBS-T), then incubated with manufacturer provided blocking solution for 1 hr at room temperature to block non-specific binding sites. After washing with PBS-T, sera diluted 1:10 was added to the wells and incubated for 2 hrs at room temperature. Plates were then incubated at room temperature for 1 hr with biotintylated detection antibody, washed, incubated with avidin conjugated to horse radish peroxidase (HRP) for 30 min at room temperature, washed, and finally incubated with tetramethylbenzidine substrate solution in the dark for 10 minutes at room temperature. The antibodies, avidin-HRP, and substrate solution were all diluted according to the manufacture's recommendation. Reactions were stopped with 2.0N sulfuric acid and the cytokine concentration in each well was determined by comparing the absorbance at 450 nm in each well to known standards. The levels of Th1- and Th2-type cytokines were determined in two different genetic backgrounds, i.e., in C57BL/6 mice and BALB/c mice. The following compounds were administered: A=compound (A-1 trans-conformer), B=compound (A-2), C=compound (A-3), D=compound (A-4), E=compound (A-5), Z=control (PBS alone), CRONY=α-C-GalCer, KRN=α-GalCer, GCK109 (A-1 trans-conformer), GCK151 (A-1 cis-conformer), GCK152 (A-7). The levels of cytokines were measured at 0, 2, 6, 12, 24, 48, and 72 hours after the compound administration. The levels of Th1-type cytokines IFN-γ and IL-12 are summarized in FIGS. 2A-C and 3A-C, respectively. Table 7 provides IFN-γ/IL-4 and IL-12/IL-4 ratios for various compounds, which can be used as indicators of their ability to selectively stimulate Th1-type immune responses.

IL-12 = IL-12 levels in sera upon i.v. glycolipid administration to C57BL/6 mice (ELISA); set-up: IL-12 levels, test 1 / IL-12 levels, test 2 / IL-12 levels, average / IL-12 levels, Total: unit not given here
Procedure: as §1

IL-4 [1] = test: IL-4 levels in sera upon i.v. glycolipid administration to BALB/c mice (ELISA); set-up: unit not given here
Procedure: as §1

IL-4 [2] = test: IL-4 levels in sera upon i.v. glycolipid administration to C57BL/6 mice (ELISA); set-up: unit not given here
Procedure: as §1

[3] = C57BL/6, ratio calculated from Tables 1-6
[4] = C57BL/6, serum, total over hours 0-72

Compound: CCCCCCCCCCCCCC[C@@H](O)[C@@H](O)[C@H](CC[C@H]1O[C@H](CO)[C@H](O)[C@H](O)[C@H]1O)NC(=O)CCCCCCCCCCCCCCCCCCCOCCCCC [A-5]
- IFN-γ/IL-4 (B6) (IFN-γ; [3]): 18
- IFN-γ levels, average (IFN-γ; C57BL/6, serum, hour 0): 31
- IFN-γ levels, test 1 (IFN-γ; C57BL/6, serum, hour 0): 31
- IFN-γ levels, test 2 (IFN-γ; C57BL/6, serum, hour 0): 31
- IFN-γ levels, average (IFN-γ; C57BL/6, serum, hour 2): 112.5
- IFN-γ levels, test 1 (IFN-γ; C57BL/6, serum, hour 2): 130
- IFN-γ levels, test 2 (IFN-γ; C57BL/6, serum, hour 2): 95
- IFN-γ levels, average (IFN-γ; C57BL/6, serum, hour 6): 929
- IFN-γ levels, test 1 (IFN-γ; C57BL/6, serum, hour 6): 930
- IFN-γ levels, test 2 (IFN-γ; C57BL/6, serum, hour 6): 928
- IFN-γ levels, average (IFN-γ; C57BL/6, serum, hour 12): 2108
- IFN-γ levels, test 1 (IFN-γ; C57BL/6, serum, hour 12): 2215
- IFN-γ levels, test 2 (IFN-γ; C57BL/6, serum, hour 12): 2001
- IFN-γ levels, average (IFN-γ; C57BL/6, serum, hour 24): 8196.5
- IFN-γ levels, test 1 (IFN-γ; C57BL/6, serum, hour 24): 7680
- IFN-γ levels, test 2 (IFN-γ; C57BL/6, serum, hour 24): 8713
- IFN-γ levels, average (IFN-γ; C57BL/6, serum, hour 48): 295
- IFN-γ levels, test 1 (IFN-γ; C57BL/6, serum, hour 48): 249
- IFN-γ levels, test 2 (IFN-γ; C57BL/6, serum, hour 48): 341
- IFN-γ levels, average (IFN-γ; C57BL/6, serum, hour 72): 102
- IFN-γ levels, test 1 (IFN-γ; C57BL/6, serum, hour 72): 101
- IFN-γ levels, test 2 (IFN-γ; C57BL/6, serum, hour 72): 103
- IFN-γ levels, Total (IFN-γ; [4]): 11775
- IL-12/IL-4 (B6) (IL-12; [3]): 3.4
- IL-12 levels, average (IL-12; C57BL/6, serum, hour 0): 5
- IL-12 levels, test 1 (IL-12; C57BL/6, serum, hour 0): 5
- IL-12 levels, test 2 (IL-12; C57BL/6, serum, hour 0): 5
- IL-12 levels, average (IL-12; C57BL/6, serum, hour 2): 115.5
- IL-12 levels, test 1 (IL-12; C57BL/6, serum, hour 2): 117
- IL-12 levels, test 2 (IL-12; C57BL/6, serum, hour 2): 114
- IL-12 levels, average (IL-12; C57BL/6, serum, hour 6): 1346.5
- IL-12 levels, test 1 (IL-12; C57BL/6, serum, hour 6): 1351
- IL-12 levels, test 2 (IL-12; C57BL/6, serum, hour 6): 1342
- IL-12 levels, average (IL-12; C57BL/6, serum, hour 12): 518.5
- IL-12 levels, test 1 (IL-12; C57BL/6, serum, hour 12): 535
- IL-12 levels, test 2 (IL-12; C57BL/6, serum, hour 12): 502
- IL-12 levels, average (IL-12; C57BL/6, serum, hour 24): 87
- IL-12 levels, test 1 (IL-12; C57BL/6, serum, hour 24): 96
- IL-12 levels, test 2 (IL-12; C57BL/6, serum, hour 24): 78
- IL-12 levels, average (IL-12; C57BL/6, serum, hour 48): 58
- IL-12 levels, test 1 (IL-12; C57BL/6, serum, hour 48): 52
- IL-12 levels, test 2 (IL-12; C57BL/6, serum, hour 48): 64
- IL-12 levels, average (IL-12; C57BL/6, serum, hour 72): 49.5
- IL-12 levels, test 1 (IL-12; C57BL/6, serum, hour 72): 46
- IL-12 levels, test 2 (IL-12; C57BL/6, serum, hour 72): 53
- IL-12 levels, Total (IL-12; [4]): 2182
- IL-4 level, average (IL-4 [1]; hour 0): 27
- IL-4 level, test 1 (IL-4 [1]; hour 0): 27
- IL-4 level, test 2 (IL-4 [1]; hour 0): 27
- IL-4 level, average (IL-4 [1]; hour 2): 156
- IL-4 level, test 1 (IL-4 [1]; hour 2): 122
- IL-4 level, test 2 (IL-4 [1]; hour 2): 190
- IL-4 level, average (IL-4 [1]; hour 6): 67.5
- IL-4 level, test 1 (IL-4 [1]; hour 6): 60
- IL-4 level, test 2 (IL-4 [1]; hour 6): 75
- IL-4 level, average (IL-4 [1]; hour 12): 45.5
- IL-4 level, test 1 (IL-4 [1]; hour 12): 48
- IL-4 level, test 2 (IL-4 [1]; hour 12): 43
- IL-4 level, average (IL-4 [1]; hour 24): 41
- IL-4 level, test 1 (IL-4 [1]; hour 24): 39
- IL-4 level, test 2 (IL-4 [1]; hour 24): 43
- IL-4 level, average (IL-4 [1]; hour 48): 40
- IL-4 level, test 1 (IL-4 [1]; hour 48): 41
- IL-4 level, test 2 (IL-4 [1]; hour 48): 39
- IL-4 level, average (IL-4 [1]; hour 72): 3.4
- IL-4 level, test 1 (IL-4 [1]; hour 72): 3.4
- IL-4 level, test 2 (IL-4 [1]; hour 72): 3.4
- IL-4 level, Total (IL-4 [1]; total over hours 0-72): 382
- IL-4 level, average (IL-4 [2]; hour 0): 46
- IL-4 level, test 1 (IL-4 [2]; hour 0): 46
- IL-4 level, test 2 (IL-4 [2]; hour 0): 46
- IL-4 level, average (IL-4 [2]; hour 2): 308
- IL-4 level, test 1 (IL-4 [2]; hour 2): 283
- IL-4 level, test 2 (IL-4 [2]; hour 2): 333
- IL-4 level, average (IL-4 [2]; hour 6): 89
- IL-4 level, test 1 (IL-4 [2]; hour 6): 75
- IL-4 level, test 2 (IL-4 [2]; hour 6): 103
- IL-4 level, average (IL-4 [2]; hour 12): 45
- IL-4 level, test 1 (IL-4 [2]; hour 12): 42
- IL-4 level, test 2 (IL-4 [2]; hour 12): 48
- IL-4 level, average (IL-4 [2]; hour 24): 50
- IL-4 level, test 1 (IL-4 [2]; hour 24): 46
- IL-4 level, test 2 (IL-4 [2]; hour 24): 54
- IL-4 level, average (IL-4 [2]; hour 48): 46
- IL-4 level, test 1 (IL-4 [2]; hour 48): 44
- IL-4 level, test 2 (IL-4 [2]; hour 48): 48
- IL-4 level, average (IL-4 [2]; hour 72): 64.5
- IL-4 level, test 1 (IL-4 [2]; hour 72): 69
- IL-4 level, test 2 (IL-4 [2]; hour 72): 60
- IL-4 level, Total (IL-4 [2]; total over hours 0-72): 649
